Assay results from patent US8420132B2, “Synergistic anti-inflammatory and antioxidant dietary supplement compositions” (Laila Impex, priority 2007, dated 2013).

Key:
[1] = test system: Freund's Complete Adjuvant (FCA) challenged rats; test: Freund's Complete Adjuvant induced inflammation (paw volume) in rats; assay type: in vivo; details: 50 mg/kg daily in 1% CMC for 28 days, FCA on day 14, paw volumes at 28th day
Experimental: Test animals (rats, 200-300 g) of either sex were randomly distributed into different groups, with 5 animals in each group. Rats were supplemented daily with either demethylated curcuminoids (50 mg/kg) or enriched AKBA extract (50 mg/kg) or glucosamine (50 mg/kg), or reseveratrol (50 mg/kg), garlic extract (50 mg/kg) or ginger extract (50 mg/kg), or composition 7 (50 mg/kg) in 1% CMC for 28 days. The control group received same volume of vehicle (1% CMC); a standard drug, Prednisolone (10 mg/kg, orally) was used in the control treatment group. On the day 14, 100 μl of Freund's Complete Adjuvant (FCA) was injected subcutaneously in the sub planter region of the left hind paw. Blood samples were collected from each animal on the previous day of FCA challenge and at the day of termination of experiment i.e. 14 days after challenge. At the 28th day paw volumes were measured and after sacrificing the animals, liver tissues were excised and stored at −80° C. until further use.

5-LOX = target: T1, 5-LOX (Homo sapiens, UniProt P09917); details: of all the six boswellic acids; cited from earlier work
T1 sequence (P09917 1-674): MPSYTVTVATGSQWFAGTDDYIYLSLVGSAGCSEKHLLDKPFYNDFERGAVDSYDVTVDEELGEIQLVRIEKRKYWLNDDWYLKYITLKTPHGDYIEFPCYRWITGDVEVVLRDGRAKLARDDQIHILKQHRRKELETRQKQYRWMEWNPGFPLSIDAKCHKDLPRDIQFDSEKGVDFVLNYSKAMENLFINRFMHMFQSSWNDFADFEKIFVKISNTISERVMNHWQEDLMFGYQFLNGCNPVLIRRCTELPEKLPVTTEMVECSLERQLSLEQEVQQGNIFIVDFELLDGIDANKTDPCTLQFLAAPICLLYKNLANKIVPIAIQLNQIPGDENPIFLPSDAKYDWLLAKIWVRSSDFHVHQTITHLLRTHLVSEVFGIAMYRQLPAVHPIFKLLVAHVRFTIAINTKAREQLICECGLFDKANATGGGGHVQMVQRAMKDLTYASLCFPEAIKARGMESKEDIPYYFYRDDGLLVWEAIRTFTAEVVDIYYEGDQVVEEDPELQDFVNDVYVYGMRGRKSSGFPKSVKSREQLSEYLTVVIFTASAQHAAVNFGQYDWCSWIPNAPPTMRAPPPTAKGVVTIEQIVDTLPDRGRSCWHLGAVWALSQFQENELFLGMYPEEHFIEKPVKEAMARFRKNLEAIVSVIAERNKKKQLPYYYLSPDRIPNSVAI

## N[C@H]1C(O)O[C@H](CO)[C@@H](O)[C@@H]1O (stereo partly drawn) [Glucosamine, glucosamine]
[1]
  percent of inhibitions: 5.5%

## Oc1ccc(/C=C/c2cc(O)cc(O)c2)cc1 [Reseveratrol, reseveratrol]
[1]
  percent of inhibitions: 20.5%

## CC(=O)O[C@H]1CC[C@@]2(C)C(CC[C@]3(C)C2C(=O)C=C2C4[C@@H](C)[C@@H](C)CC[C@]4(C)CC[C@@]23C)[C@]1(C)C(=O)O (stereo partly drawn) [AKBA, 3-O-acetyl-11-keto-β-boswellic acid]
5-LOX
  inhibitory activity against 5-LOX (in words): most pronounced inhibitory activity
